pIC50: −log10 of the molar value. Numbered stars: 1 amine (or outer) side, 2 acyl side, 3 side chain; on linkers, the order of the positions; unused ones are H or OH. Square brackets hold non-standard residues; d marks the D form. Peptide text beside a SMILES is read from it. * marks the point of attachment. Heptanoyl(3-oxo-2,2,4S,6-Me) = CC(C)C[C@H](C)C(=O)C(C)(C)C(=O)*; NH((S)-1-NMe2-3-Me-but-2-yl) = CC(C)[C@@H](CN(C)C)N*; Ile(3R-OH) = CC[C@@](C)(O)[C@H](N)C(=O)O; dVal(3-OH) = CC(C)(O)[C@@H](N)C(=O)O; d(aIle) = CC[C@H](C)[C@@H](N)C(=O)O; Val(3-OH) = CC(C)(O)[C@H](N)C(=O)O; X1 = CCC(CC)=C(N[*:1])C(=O)[*:2]; NHCH2CH2NMe2 = CN(C)CCN*; ΔVal = CC(C)=C(N)C(=O)O
Tests used:
A375 = test: cells; conditions: read-out: Aver IC50, A375; A375 (Malignant Melanoma); MTS, 72 hours, 37 °C, 5% CO2, 384-well; n>2 independent studies (in duplicate)
Procedure: (§1) The antiproliferative activity profiles of 1a, its full-length analogs 2a and 2b, and its partial structures (23, 24, 26, and 30) were determined by in vitro screening in 72 hours MTS cell proliferation assays against a panel of 18 different human cancer cell lines. […] The three peptides were also evaluated for their antiproliferative activity against the lung fibroblast MRC5 cell line.
(§2) Cells (40 µ L) are added into individual wells of a 384-well black/clear bottom plate on day zero at concentrations enabling continuous log growth over the course of the assay. On day one, compounds (or DMSO) are transferred using an ATS-liquid handler (100 nL per well) to individual wells containing cells and the cells are treated for 72 hours (37 °C, 5% CO 2) prior to measuring proliferation using MTS reagent following manufacturer’s instructions. Net OD values are determined by subtracting the average OD values of cells (measured on day 1, T = 0) from average total OD value of cells (measured on day 4, T = 72h). IC 50 values are calculated using proprietary software (IC 50 values normalized against all compounds). Results represent n>2 independent studies (in duplicate).
(§3) Table S1. Antiproliferative Data of Compounds 1a, 2a, 2b, 23, 24, 26, and 30.
(§4) Table S2. Human Cell Line Descriptions.
(§5) Human Cell Line* Description
(§6) *All cells were obtained from ATCC and are authenticated

A549 = test: cells; conditions: read-out: Aver IC50, A549; A549 (Lung - NSCLC); MTS, 72 hours, 37 °C, 5% CO2, 384-well; n>2 independent studies (in duplicate)
Procedure: as §1, §2, §3, §4, §5, §6

BXPC3 = test: cells; conditions: read-out: Aver IC50, BXPC3; BXPC3 (Pancreatic - Adenocarcinoma); MTS, 72 hours, 37 °C, 5% CO2, 384-well; n>2 independent studies (in duplicate)
Procedure: as §1, §2, §3, §4, §5, §6

CALU6 = test: cells; conditions: read-out: Aver IC50, CALU6; CALU6 (Lung - Adenocarcinoma); MTS, 72 hours, 37 °C, 5% CO2, 384-well; n>2 independent studies (in duplicate)
Procedure: as §1, §2, §3, §4, §5, §6

COLO678 = test: cells; conditions: read-out: Aver IC50, COLO678; COLO678 (Colon Carcinoma); MTS, 72 hours, 37 °C, 5% CO2, 384-well; n>2 independent studies (in duplicate)
Procedure: as §1, §2, §3, §4, §5, §6

HCT116 = test: cells; conditions: read-out: Aver IC50, HCT116; HCT116 (Colon Carcinoma); MTS, 72 hours, 37 °C, 5% CO2, 384-well; n>2 independent studies (in duplicate)
Procedure: as §1, §2, §3, §4, §5, §6

HL60 = test: cells; conditions: read-out: Aver IC50, HL60; HL60 (Leukema - Promyelocytic); MTS, 72 hours, 37 °C, 5% CO2, 384-well; n>2 independent studies (in duplicate)
Procedure: as §1, §2, §3, §4, §5, §6

HT29 = test: cells; conditions: read-out: Aver IC50, HT29; HT29 (Colon Carcinoma); MTS, 72 hours, 37 °C, 5% CO2, 384-well; n>2 independent studies (in duplicate)
Procedure: as §1, §2, §3, §4, §5, §6

JURKAT = test: cells; conditions: read-out: Aver IC50, JURKAT; JURKAT (acute T-cell leukemia); MTS, 72 hours, 37 °C, 5% CO2, 384-well; n>2 independent studies (in duplicate)
Procedure: as §1, §2, §3, §4, §5, §6

MV411 = test: cells; conditions: read-out: Aver IC50, MV411; MV411 (Acute Myeloid Leukemia); MTS, 72 hours, 37 °C, 5% CO2, 384-well; n>2 independent studies (in duplicate)
Procedure: as §1, §2, §3, §4, §5, §6

NCIH1048 = test: cells; conditions: read-out: Aver IC50, NCIH1048; NCIH1048 (Lung - SCLC); MTS, 72 hours, 37 °C, 5% CO2, 384-well; n>2 independent studies (in duplicate)
Procedure: as §1, §2, §3, §4, §5, §6

OVCAR3 = test: cells; conditions: read-out: Aver IC50, OVCAR3; OVCAR3 (Ovary - Adenocarcinoma); MTS, 72 hours, 37 °C, 5% CO2, 384-well; n>2 independent studies (in duplicate)
Procedure: as §1, §2, §3, §4, §5, §6

PANC1005 = test: cells; conditions: read-out: Aver IC50, PANC1005; PANC1005 (Pancreatic - Adenocarcinoma); MTS, 72 hours, 37 °C, 5% CO2, 384-well; n>2 independent studies (in duplicate)
Procedure: as §1, §2, §3, §4, §5, §6

RAMOS = test: cells; conditions: read-out: Aver IC50, RAMOS; RAMOS (Burkitt's lymphoma); MTS, 72 hours, 37 °C, 5% CO2, 384-well; n>2 independent studies (in duplicate)
Procedure: as §1, §2, §3, §4, §5, §6

SNUC1 = test: cells; conditions: read-out: Aver IC50, SNUC1; SNUC1 (Colon Carcinoma); MTS, 72 hours, 37 °C, 5% CO2, 384-well; n>2 independent studies (in duplicate)
Procedure: as §1, §2, §3, §4, §5, §6

THP1 = test: cells; conditions: read-out: Aver IC50, THP1; THP1 (Acute Monocytic Leukemia); MTS, 72 hours, 37 °C, 5% CO2, 384-well; n>2 independent studies (in duplicate)
Procedure: as §1, §2, §3, §4, §5, §6

U937 = test: cells; conditions: read-out: Aver IC50, U937; U937 (Pro-monocytic, Human Myeloid Leukemia); MTS, 72 hours, 37 °C, 5% CO2, 384-well; n>2 independent studies (in duplicate)
Procedure: as §1, §2, §3, §4, §5, §6

[1] = test system: lung fibroblast MRC5 cell line; test: cells; conditions: read-out: Aver IC50, MRC5; MRC5 (Lung Fibroblast, noncancerous); MTS, 72 hours, 37 °C, 5% CO2, 384-well; n>2 independent studies (in duplicate)
Procedure: as §1, §2, §3, §4, §5, §6

MCF7 = MCF7 (Breast Carcinoma), MTS, 72 hours, 37 °C, 5% CO2, 384-well, n>2 independent studies (in duplicate); for pIC50: read-out: Aver IC50, MCF7
Procedure: as §1, §2, §3, §4, §5, §6

[2] = test system: panel of 18 different human cancer cell lines; test: 72 h MTS cell proliferation assays, panel of cancer cell lines; format: cell-based; conditions: against most of the cell lines, ca.
Procedure: as §1, §2, §3, §4, §5, §6

[3] = test system: P388 murine leukemia cells; conditions: cited from earlier work
Description: The linear peptide yaku'amide A (1a, Fig. 1) was isolated by Matsunaga and co-workers from the deep-sea sponge Ceratopsion sp.[1] It contains several unusual β-tert-hydroxy amino acids (β-OHAAs) and tetrasubstituted dehydroamino acids (ΔAAs).

Molecule	pIC50 (A375)	pIC50 (A549)	pIC50 (BXPC3)	pIC50 (CALU6)	pIC50 (COLO678)	pIC50 (HCT116)	pIC50 (HL60)	pIC50 (HT29)	pIC50 (JURKAT)	pIC50 (MV411)	pIC50 (NCIH1048)	pIC50 (OVCAR3)	pIC50 (PANC1005)	pIC50 (RAMOS)	pIC50 (SNUC1)	pIC50 (THP1)	pIC50 (U937)	pIC50 [1]	pIC50 (MCF7)	other results
CCC(CC)=C(NC(=O)[C@@H](NC(=O)C(C)(C)C(=O)[C@@H](C)CC(C)C)[C@](C)(O)CC)C(=O)NCC(=O)NC(C(=O)N[C@@H](C(=O)N[C@@H](C(=O)N[C@@H](C(=O)N[C@H](C(=O)NC(C(=O)N[C@H](C)C(=O)N[C@@H](C(=O)N[C@H](C(=O)NC(C(=O)N[C@H](CN(C)C)C(C)C)=C(C)C)C(C)C)C(C)C)=C(C)C)C(C)(C)O)C(C)(C)O)[C@@H](C)CC)C(C)C)=C(C)C [Compound 2a] ({Heptanoyl(3-oxo-2,2,4S,6-Me)}-[Ile(3R-OH)][X1]G[ΔVal][dV][d(aIle)][dVal(3-OH)][Val(3-OH)][ΔVal][dA][dV]V[ΔVal]-{NH((S)-1-NMe2-3-Me-but-2-yl)})	5.82	7.06	5.41	6.24	5.70	5.95	6.43	5.64	5.38	7.68	5.88	7.09	5.71	6.44	7.46	5.04	6.36	5.26	4.89	Increased potency compared to 2b [2]: 2–4 fold
CCC(CC)=C(NC(=O)CNC(=O)C(NC(=O)[C@@H](NC(=O)C(C)(C)C(=O)[C@@H](C)CC(C)C)[C@](C)(O)CC)=C(C)C)C(=O)N[C@@H](C(=O)N[C@@H](C(=O)N[C@@H](C(=O)N[C@H](C(=O)NC(C(=O)N[C@H](C)C(=O)NCCN(C)C)=C(C)C)C(C)(C)O)C(C)(C)O)[C@@H](C)CC)C(C)C [Compound 30] ({Heptanoyl(3-oxo-2,2,4S,6-Me)}-[Ile(3R-OH)][ΔVal]G[X1][dV][d(aIle)][dVal(3-OH)][Val(3-OH)][ΔVal][dA]-NHCH2CH2NMe2)	4.61	4.69	< 4.60	< 4.60	< 4.60	< 4.60	4.70	< 4.60	4.64	5.57	< 4.60	4.90	< 4.60	4.61	4.69	< 4.60	< 4.60	< 4.60	4.90	
yaku'amide A [Compound 1a, reference compound]	5.67	6.97	5.42	5.65	5.57	5.76	6.24	5.54	5.31	6.93	5.51	6.64	5.55	6.01	6.89	5.03	5.92	4.84	6.90	Aver IC50, MCF7 (MCF7): potent; IC50, growth inhibition of P388 murine leukemia cells [3]: 0.014 µg/mL
